Each structure is given as a SMILES string. Bounds are passed on as bounds.

Usually Kd stands for the constant that tells how readily two partners part at equilibrium.

One data set deals with A. baumanii ATCC 19606. The data set can be described thus: Antibacterial activity (MIC, broth dilution). Format: cell-based, Acinetobacter baumanii. Conditions: CLSI, in µg/mL. From the text:
Staphylococcus aureus ATCC 29213, Escherichia coli ATCC 25922, Enterococcus faecalis ATCC 29212, Streptococcus pneumonia ATCC 49619 and Acinetobacter baumanii ATCC 19606 were obtained from Microbiologics (St. Cloud, MN). E. faecalis ATCC 51575, ATCC 51299 and REMEL C99707 and E. faecium ATCC 51559 (MDR), REMEL IH79985 and REMEL C110914 were generously provided by the Laboratory of Pathology, University of Maryland Baltimore School of Medicine. Unless stated otherwise, chemicals and reagents were purchased from Sigma.
(§1) Determination of the Minimal Inhibitory Concentrations (MIC) by dilution was carried out by broth dilution according to CLSI standards.

The next data set relates to E. aerogenes ATCC 13048. The data set can be described thus: Antibacterial activity (MIC, broth dilution). It counts as cell-based. Conditions: CLSI. As to the method:
as §1

A further data set has as its system E. cloacae ATCC 13047. The data set can be described thus: Antibacterial activity (MIC, broth dilution). It counts as cell-based. Conditions: CLSI. Here is the method:
as §1

For another data set, the system named is E. faecium EF1509 (VRE). The data set can be described thus: Antibacterial activity (MIC, broth dilution). It counts as cell-based. Conditions: CLSI, in µg/mL. As to the method:
as §1

The next data set has as its system E. faecium F118 (VRE). The experiment in a line: Antibacterial activity (MIC, broth dilution). Conditions: CLSI, in µg/mL. It counts as cell-based. As to the method: as §1
On the technique in general: Broth dilution looks for growth in wells or tubes with falling amounts of substance.

Data set [1] relates to K. pneumoniae NR-15410 (KPC). The experiment in a line: Antibacterial activity (MIC, broth dilution). Format: cell-based. Conditions: CLSI. As to the method: as §1
Data set [2] has as its system K. pneumoniae NR-15411 (KPC). The data set can be described thus: Antibacterial activity (MIC, broth dilution). Format: cell-based. Conditions: CLSI. Here is the method: as §1
The subject of the next data set is P. aeruginosa ATCC 27853. The data set can be described thus: Antibacterial activity (MIC, broth dilution). It counts as cell-based. Conditions: CLSI. Here is the method:
as §1

The test system of the next data set is P. aeruginosa PA01. The experiment in a line: Antibacterial activity (MIC, broth dilution). Conditions: CLSI. It counts as cell-based. Here is the method:
as §1

A further data set has as its system P. aeruginosa X13273. The experiment in a line: Antibacterial activity (MIC, broth dilution). It counts as cell-based. Conditions: CLSI, in µg/mL. Here is the method: as §1
In data set [3] the test system is S. aureus HFH-30123 (MRSA). The experiment in a line: Antibacterial activity (MIC, broth dilution). Format: cell-based. Conditions: CLSI. Here is the method:
as §1

The next data set relates to S. aureus MRSA 1094. The data set can be described thus: Antibacterial activity (MIC, broth dilution). It counts as cell-based. Conditions: CLSI. Here is the method:
as §1

For a further data set, the system named is HeLa cells. The experiment in a line: Cytotoxicity against mammalian cells (MTS assay). It counts as cell-based. As to the method:
The cytotoxicity concentration of antibacterial compounds that produces half maximal decrease in viability (CC50) against mammalian cells (HeLa, ATCC CCL-2.2) was determined as described. The effect of compounds on HeLa cell viability was assessed in triplicate by measuring the mitochondrial activity using MTS assays according to the manufacturer’s instructions (Cell Titer 96 proliferation assay, Promega). The cells were incubated for 72 hours in RPMI1640 medium containing the compounds at final concentrations ranging from 64 to 0.125 μg/ml. CC50 was determined using a standard curve of serially diluted untreated cells in each experiment.
(In general: Formazan colour is commonly taken as a measure of viable cells.)

The nature of data set [4]: Lipid II binding by Surface Plasmon Resonance. Conditions: SPR, immobilized 3-Lipid II, 25°C. As to the method: Short-chain water-soluble Lipid II containing a lipid tail of three isoprene units was generated and purified essentially as described. Typically, M. flavus vesicles (120 μmol lipid-Pi) were incubated together with 500 μmol UDP-GlcNAc, 500 μmol UDP-MurNAC-pentapeptide and 400 μmol farnesyl phosphate in 100 mM Tris-HCl pH 8.0, 5 mM MgCl2. The incubation lasted two hours at room temperature for 3-P. The synthesis of 3-Lipid II was followed using RP-8 reversed phase TLC (Merck) developed in 75% methanol. For purification, the membranes were removed by centrifugation at 40,000 x g and the supernatant was collected and loaded on a C18 HPLC column and eluted with a linear gradient from 50 mM ammonium bicarbonate to 100% methanol in 30 minutes. Farnesyl-Lipid II (3-Lipid II) eluted at approximately 60% methanol. Its identity was confirmed by mass spectroscopy. Surface Plasmon Resonance binding experiments were carried out on a BIAcore T100 system (BIAcore Inc., Piscataway, NY) at 25°C. The assay buffer was 10 mM HEPES, 150 mM NaCl, 0.05% surfactant P20, pH 7.4 (± 3 mM EDTA) supplemented with 10% DMSO. 3-Lipid II (50 RUs) was immobilized on CM5 sensor chips using the amine-coupling chemistry recommended by the manufacturer. For initial determination of binding, compounds were introduced into the flow-cells (30 μl/min) in the running buffer at 10 μM. Resonance signals were corrected for nonspecific binding by subtracting the background of the control flow-cell. After each analysis, the sensor chip surfaces were regenerated with 50 mM NaOH for 30 s at a flow rate 100 μl/min, and equilibrated with the buffer prior to next injection. For binding kinetics studies, binding isotherms were analyzed with manufacturer-supplied software for BIAcore T100.

As for `CN(C)c1ccc(/C=C/C=C/c2cc(-c3ccc(Br)cc3)cc(-c3ccc(Br)cc3)[o+]2)cc1.F[B-](F)(F)F` [6jc48-2], the “Antibacterial activity (MIC) A. baumanii ATCC 19606” value with A. baumanii ATCC 19606 is on record as “>=64”. Further, the Antibacterial activity (MIC) E. aerogenes ATCC 13048 with E. aerogenes ATCC 13048 is ≥ 64 µg/mL. Further, the Antibacterial activity (MIC) E. cloacae ATCC 13047 in the data set on E. cloacae ATCC 13047 was ≥ 64 µg/mL. Besides, in the data set on E. faecium EF1509 (VRE), the “Antibacterial activity (MIC) E. faecium EF1509 (VRE)” value amounted to 4. Moreover, the “Antibacterial activity (MIC) E. faecium F118 (VRE)” value in the data set with E. faecium F118 (VRE) was found to be 16. For the same compound, the Antibacterial activity (MIC) K. pneumoniae NR-15410 (KPC) in [1] is ≥ 64 µg/mL. The Antibacterial activity (MIC) K. pneumoniae NR-15411 (KPC) in data set [2] is ≥ 64 µg/mL. The Antibacterial activity (MIC) P. aeruginosa ATCC 27853 in the data set on P. aeruginosa ATCC 27853 was ≥ 64 µg/mL. In the data set on P. aeruginosa PA01, the Antibacterial activity (MIC) P. aeruginosa PA01 is ≥ 64 µg/mL. In the data set on P. aeruginosa X13273, the “Antibacterial activity (MIC) P. aeruginosa X13273” value was “>=64”. Further, in data set [3], the Antibacterial activity (MIC) S. aureus HFH-30123 (MRSA) was ≥ 64 µg/mL. Besides, the Antibacterial activity (MIC) S. aureus MRSA 1094 with S. aureus MRSA 1094 was ≥ 64 µg/mL. Further, in the data set on HeLa cells, the “CC50% (72 h HeLa cells)” value came to 60.51. In addition, the Kd in data set [4] was 1.14 ± 0.3 µM.

In the case of `Cc1ccc(-c2cc(/C=C/C=C/c3ccc(N(C)C)cc3)[o+]c(-c3ccc(C)cc3)c2)cc1.F[B-](F)(F)F` [6jc51-2], the “Antibacterial activity (MIC) A. baumanii ATCC 19606” value in the data set on A. baumanii ATCC 19606 is given as 32. For the same compound, the Antibacterial activity (MIC) E. aerogenes ATCC 13048 with E. aerogenes ATCC 13048 is ≥ 64 µg/mL. For the same compound, the Antibacterial activity (MIC) E. cloacae ATCC 13047 with E. cloacae ATCC 13047 is ≥ 64 µg/mL. Also, the “Antibacterial activity (MIC) E. faecium EF1509 (VRE)” value with E. faecium EF1509 (VRE) is recorded as 0.5. The “Antibacterial activity (MIC) E. faecium F118 (VRE)” value in the data set on E. faecium F118 (VRE) is listed as 2. In data set [1], this compound yielded an Antibacterial activity (MIC) K. pneumoniae NR-15410 (KPC) of 64 µg/mL. Besides, in data set [2], the Antibacterial activity (MIC) K. pneumoniae NR-15411 (KPC) was ≥ 64 µg/mL. In addition, the Antibacterial activity (MIC) P. aeruginosa ATCC 27853 in the data set on P. aeruginosa ATCC 27853 is ≥ 64 µg/mL. The Antibacterial activity (MIC) P. aeruginosa PA01 in the data set on P. aeruginosa PA01 is ≥ 64 µg/mL. Moreover, the “Antibacterial activity (MIC) P. aeruginosa X13273” value in the data set with P. aeruginosa X13273 is “>=64”. This compound also displayed an Antibacterial activity (MIC) S. aureus HFH-30123 (MRSA) in data set [3] of 4 µg/mL. The same compound registered an Antibacterial activity (MIC) S. aureus MRSA 1094 in the data set on S. aureus MRSA 1094 of 2 µg/mL. Also, the “CC50% (72 h HeLa cells)” value with HeLa cells is “<.78125”. In data set [4], this compound registered a Kd of 9.5 ± 2 µM.

On to `Cc1ccc(-c2cc(/C=C/c3c[nH]c4ccccc34)[o+]c(-c3ccc(C)c(C)c3)c2)cc1C.F[B-](F)(F)F` [6jc-59-3], for which the “Antibacterial activity (MIC) A. baumanii ATCC 19606” value with A. baumanii ATCC 19606 is reported as “>=64”. Besides, in the data set on E. aerogenes ATCC 13048, the Antibacterial activity (MIC) E. aerogenes ATCC 13048 is ≥ 64 µg/mL. Also, in the data set with E. cloacae ATCC 13047, the Antibacterial activity (MIC) E. cloacae ATCC 13047 was ≥ 64 µg/mL. The “Antibacterial activity (MIC) E. faecium EF1509 (VRE)” value in the data set on E. faecium EF1509 (VRE) worked out at 5.657. In the data set on E. faecium F118 (VRE), the “Antibacterial activity (MIC) E. faecium F118 (VRE)” value came to 8. Also, in data set [1], the Antibacterial activity (MIC) K. pneumoniae NR-15410 (KPC) is ≥ 64 µg/mL. Moreover, the Antibacterial activity (MIC) K. pneumoniae NR-15411 (KPC) in data set [2] was ≥ 64 µg/mL. Further, the Antibacterial activity (MIC) P. aeruginosa ATCC 27853 with P. aeruginosa ATCC 27853 is ≥ 64 µg/mL. Also, the Antibacterial activity (MIC) P. aeruginosa PA01 in the data set with P. aeruginosa PA01 was ≥ 64 µg/mL. For the same compound, the “Antibacterial activity (MIC) P. aeruginosa X13273” value in the data set on P. aeruginosa X13273 was “>=64”. This compound also registered an Antibacterial activity (MIC) S. aureus HFH-30123 (MRSA) in data set [3] of 4 µg/mL. The compound also yielded an Antibacterial activity (MIC) S. aureus MRSA 1094 in the data set on S. aureus MRSA 1094 of 4 µg/mL. Also, the “CC50% (72 h HeLa cells)” value with HeLa cells amounted to 1.35. In addition, binding in data set [4] was characterised by a dissociation constant (Kd) of 27.9 ± 3 µM.

Take `CN(C)c1ccc(/C=C/c2cc(-c3ccc(Cl)cc3)cc(-c3ccc(Cl)cc3)[o+]2)cc1.F[B-](F)(F)F` [6jc41-1]: the “Antibacterial activity (MIC) A. baumanii ATCC 19606” value in the data set with A. baumanii ATCC 19606 was “>=64”. The Antibacterial activity (MIC) E. aerogenes ATCC 13048 with E. aerogenes ATCC 13048 is ≥ 64 µg/mL. The Antibacterial activity (MIC) E. cloacae ATCC 13047 in the data set with E. cloacae ATCC 13047 was ≥ 64 µg/mL. The “Antibacterial activity (MIC) E. faecium EF1509 (VRE)” value with E. faecium EF1509 (VRE) came out at 22.63. For the same compound, the “Antibacterial activity (MIC) E. faecium F118 (VRE)” value with E. faecium F118 (VRE) was 8. For the same compound, in data set [1], the Antibacterial activity (MIC) K. pneumoniae NR-15410 (KPC) is ≥ 64 µg/mL. For the same compound, in [2], the Antibacterial activity (MIC) K. pneumoniae NR-15411 (KPC) is ≥ 64 µg/mL. The Antibacterial activity (MIC) P. aeruginosa ATCC 27853 in the data set on P. aeruginosa ATCC 27853 was ≥ 64 µg/mL. The Antibacterial activity (MIC) P. aeruginosa PA01 in the data set on P. aeruginosa PA01 is ≥ 64 µg/mL. The “Antibacterial activity (MIC) P. aeruginosa X13273” value in the data set on P. aeruginosa X13273 is “>=64”. Further, in data set [3], the Antibacterial activity (MIC) S. aureus HFH-30123 (MRSA) is 32 µg/mL. The compound further returned an Antibacterial activity (MIC) S. aureus MRSA 1094 with S. aureus MRSA 1094 of 16 µg/mL. Further, the “CC50% (72 h HeLa cells)” value in the data set on HeLa cells is reported as >32. In data set [4], this compound yielded a Kd of 34 ± 4 µM.
